Counter-ions that a name gives are not always drawn.
Legend:
[1] = Geometric particle size distribution by laser diffraction (Sympatec HELOS, RODOS dry dispersion); assay type: physicochemical; conditions: micronized with Model 00 Jet-O-Mizer Air Jet Mill
Procedure: PSD was calculated using Fraunhofer theory using the Sympatec laser diffractor. […] Measurements were taken every 5 msec […] following powder dispersion. Measurements that were between 5-25% optical density were averaged to determine particle size distribution. Data was analyzed using HELOS software version 5.6.0.0 with an HRLD model to convert the scattering pattern to a particle size distribution.

[2] = Aerosol performance of physical blends, Next Generation Impactor, medium resistance RS01 DPI; assay type: physicochemical; conditions: RS01 device
Procedure: (§1) The aerosol performance of the physically blended mixtures was determined using cascade impaction, specifically as Next Generation Impactor, as prescribed by the United States Pharmacopeia chapter 601. For these studies, a medium resistance Model 7 RS01 dry powder inhaler (DPI) manufactured by Berry Global Osnago was utilized. 20 mg of the physical blends (1:0.5 CFZ-AMK, 1:2 CFZ-AMK, 1:4 CFZ-AMK, or 1:8 CFZ-AMK) or 10 mg of air jet milled clofazimine or air jet milled amikacin sulfate alone was loaded into a size 3 hydroxypropyl methylcellulose (HPMC) capsule. The device was actuated at an airflow rate to induce a 4 kPa pressure drop (i.e., 80 L/min) or 2 kPa pressure drop (i.e., 56.6 L/min) through the device for period of time sufficient to draw 4 L of air through the apparatus. To reduce particle bounce and re-entrainment, the NGI plates were coated with 1% (v/v) glycerin in ethanol and allowed to dry prior to performing the experiment. After actuation, powder was collected from the capsule, device, induction port, and stages of the Next Generation Impactor by adding a volume of 75/25 acetonitrile/water containing 0.16 mg/mL polysorbate 80 that was sufficient to dissolve the deposited powder. Phase separation of the solution into an organic phase containing clofazimine and an aqueous phase containing amikacin was induced by adding a volume of 5 M ammonium acetate equivalent to 16.7% of the original solution volume. The organic and aqueous phases were analyzed using high pressure liquid chromatography and concentration of each drug was quantified using a previously prepared standard curve.
(§2) Stage 1-7 cut-off diameters were determined using equation 1 and MOC cut-off diameters were determined using equation 2.
(§3) where D50,Q is the cutoff diameter at the flow rate, Q, and the subscript, n, refers to the archival reference value for Qn=60 L/min, and the values for the exponent, x, were determined by the archival NGI stage cut size-flow rate calculations, as determined by Marple et al.
(§4) The emitted fraction (EF) was calculated as the total drug emitted from the device as a percentage of the total mass of drug collected (i.e., recovered dose). The respirable fraction that was less than 5 μm aerodynamic diameter and less than 3 μm aerodynamic diameter corresponded to the percentage of the recovered dose predicted to have the aerodynamic diameter below 5 μm and 3 μm. The respirable fraction values were interpolated from a graph with the cumulative percentage of the emitted dose deposited downstream from an NGI stage as the ordinate and the particle cutoff size of that stage as the abscissa. For each sample, the mass median aerodynamic diameter (MMAD), which represents the mass-based median point of the aerodynamic particle size distribution (APSD), and geometric standard deviation (GSD), which represents the spread of the APSD, were determined by plotting the cumulative percentage of mass less than the stated aerodynamic size cut (expressed as Probits) against the aerodynamic diameter (log scale). Distributions were log normal. A linear regression was performed to determine the aerodynamic diameters corresponding to the 50% percentile (Probit 5) to determine the MMAD, and the aerodynamic diameters corresponding the 15.87% percentile (Probit 4) and 84.13% percentile (Probit 6) to calculate the GSD. The results of this analysis are shown in Table 5-8 and FIG. 2, and are presented as mean±standard deviation (n=3)

[3] = Aerosol performance of clofazimine and amikacin co-administered from dual chamber Dualhaler DPI, Next Generation Impactor; assay type: physicochemical; conditions: Dualhaler device
[4] = system: Mab-infected THP-1 macrophages; assay: In vitro efficacy study, micronized CFZ particles added to media containing AMK; assay type: cell-based, Mycobacterium abscessus (Mab)
[5] = Aerosol performance of composite spray dried particles, Next Generation Impactor, medium resistance RS01 DPI; assay type: physicochemical; conditions: spray dried powder, RS01 device
Procedure: as §1, with “the composite spray dried particles” for “the physically blended mixtures”, “the spray dried powders (1:2” for “the physical blends (1:0.5 CFZ-AMK, 1:2”, “or spray dried” for “or air jet milled”, “capsule. For these studies, spray dried clofazimine was not tested due to the extremely low powder yield and the tendency of the particles to dry as large needle structures.” for “capsule.”
as §2, §3
as §4, with “Tables 11-14” for “Table 5-8”, “11,” for “2,”

[6] = cited from earlier work
[7] = Solubility of the drug substances in solvents; assay type: physicochemical; conditions: ethanol and isopropanol, organic solvent or mixture
[8] = in vivo, po; cited from earlier work
[9] = in vivo, po; cited from earlier work; remark: listed apart in the source
[10] = 2 kPa pressure drop, amikacin component (Table 7)
[11] = 4 kPa pressure drop, amikacin component
[12] = 2 kPa pressure drop, amikacin component (Table 17)
[13] = 2 kPa pressure drop, amikacin component as titled (Table 8, reference Jet milled CFZ alone)
[14] = 4 kPa pressure drop, clofazimine component
[15] = 2 kPa pressure drop, amikacin component as titled (Table 18, reference Jet milled CFZ alone)
[16] = 2 kPa pressure drop, clofazimine component
[17] = 4 kPa pressure drop, clofazimine component (Table 12)
[18] = 4 kPa pressure drop, clofazimine component as titled (Table 13, reference Spray dried AMK-S alone)

With `NCC[C@H](O)C(=O)NC1C[C@H](N)[C@@H](O[C@H]2O[C@H](CN)[C@H](O)[C@H](O)[C@H]2O)[C@H](O)[C@H]1O[C@H]1O[C@H](CO)[C@@H](O)[C@H](N)[C@H]1O` (stereo partly drawn) [AMK sulfate, (2S)-4-amino-N-[(2S,3S,4R,5S)-5-amino-2-[(2S,3R,4S,5S,6R)-4-amino-3,5-dihydroxy-6-(hydroxymethyl)oxan-2-yl]oxy-4-[(2R,3R,4S,5R,6R)-6-(aminomethyl)-3,4,5-trihydroxy-oxan-2-yl]oxy-3-hydroxy-cyclohexyl]-2-hydroxybutanamide] the X50 particle diameter [1] was 4.04 μm and the X90 particle diameter [1] was 7.72 μm.

In the case of `NCC[C@H](O)C(=O)NC1C[C@H](N)[C@@H](O[C@H]2O[C@H](CN)[C@H](O)[C@H](O)[C@H]2O)[C@H](O)[C@H]1O[C@H]1O[C@H](CO)[C@@H](O)[C@H](N)[C@H]1O` (stereo partly drawn) [Jet milled AMK-S alone, (2S)-4-amino-N-[(2S,3S,4R,5S)-5-amino-2-[(2S,3R,4S,5S,6R)-4-amino-3,5-dihydroxy-6-(hydroxymethyl)oxan-2-yl]oxy-4-[(2R,3R,4S,5R,6R)-6-(aminomethyl)-3,4,5-trihydroxy-oxan-2-yl]oxy-3-hydroxy-cyclohexyl]-2-hydroxybutanamide], the “EF (emitted fraction)” value [2, 10] is reported as 77.2 ± 11.2%, the MMAD [2, 10] is reported as 8.23 ± 0.57 μm and the “RF < 3 μm” value [2, 10] is reported as 30.4 ± 3.4%. For the same molecule, the “RF < 5 μm” value [2, 10] was 48.3 ± 3.8%, the “EF (emitted fraction)” value [2, 11] was 82.1 ± 1.2% and the MMAD [2, 11] was 9.07 ± 1.76 μm. The “RF < 3 μm” value [2, 11] was 28.2 ± 4.9%, the “RF < 5 μm” value [2, 11] was 40.8 ± 7.2% and the “EF (emitted fraction)” value [3, 12] was 14.1 ± 23.7%. For the same molecule, the “RF < 3 μm” value [3, 12] was 15.5 ± 2.4%, the “RF < 5 μm” value [3, 12] was 23.4 ± 4.6% and the “EF (emitted fraction)” value [3, 11] was 47.8 ± 13.8%. The “RF < 3 μm” value [3, 11] was 22.6 ± 1.4% and the “RF < 5 μm” value [3, 11] was 28.6 ± 1.5%.

For `CC(C)N=c1cc2n(-c3ccc(Cl)cc3)c3ccccc3nc-2cc1Nc1ccc(Cl)cc1` [Jet milled CFZ alone, N,5-bis(4-chlorophenyl)-3-(1-methylethylimino)-5H-phenazin-2-amine], the “Intracellular drug accumulation with increasing doses” value ([4]; increasing doses of micronized CFZ) was “notable increase in intracellular drug accumulation”, the “Change in intracellular bacterial burden with increasing doses” value ([4]; increasing doses of micronized CFZ, with AMK) was “no statistically significant changes” and the “Intracellular Mab bacilli compared to the use of AMK alone” value ([4]; micronized CFZ particles added to media containing 40 μg/mL AMK) was “statistically significant reduction”. For the same molecule, the “EF (emitted fraction)” value [2, 13] was 80.7 ± 9.7%, the MMAD [2, 13] was 10.08 ± 7.79 μm and the “RF < 3 μm” value [2, 13] was 37.5 ± 18.2%. The “RF < 5 μm” value [2, 13] was 51.0 ± 19.0%, the “EF (emitted fraction)” value [2, 14] was 76.2 ± 4.1% and the MMAD [2, 14] was 5.36 ± 0.53 μm. The “RF < 3 μm” value [2, 14] was 47.4 ± 3.7%, the “RF < 5 μm” value [2, 14] was 58.8 ± 4.7% and the “EF (emitted fraction)” value [3, 15] was 41.2 ± 4.1%. The “RF < 3 μm” value [3, 15] was 19.8 ± 2.2%, the “RF < 5 μm” value [3, 15] was 26.1 ± 3.1% and the “EF (emitted fraction)” value [3, 14] was 44.9 ± 16.1%. For the same molecule, the “RF < 3 μm” value [3, 14] was 25.1 ± 10.9%, the “RF < 5 μm” value [3, 14] was 30.8 ± 12.6% and the “EF (emitted fraction)” value [5, 16] was 80.7 ± 9.7%. For the same molecule, the MMAD [5, 16] was 10.08 ± 7.79 μm, the “RF < 3 μm” value [5, 16] was 37.5 ± 18.2% and the “RF < 5 μm” value [5, 16] was 51.0 ± 19.0%. For the same molecule, the “EF (emitted fraction)” value [5, 17] was 76.2 ± 4.1%, the MMAD [5, 17] was 5.36 ± 0.53 μm and the “RF < 3 μm” value [5, 17] was 47.4 ± 3.7%. For the same molecule, the “RF < 5 μm” value [5, 17] was 58.8 ± 4.7%.

With `NCC[C@H](O)C(=O)NC1C[C@H](N)[C@@H](O[C@H]2O[C@H](CN)[C@H](O)[C@H](O)[C@H]2O)[C@H](O)[C@H]1O[C@H]1O[C@H](CO)[C@@H](O)[C@H](N)[C@H]1O` (stereo partly drawn) [Spray dried AMK-S alone, (2S)-4-amino-N-[(2S,3S,4R,5S)-5-amino-2-[(2S,3R,4S,5S,6R)-4-amino-3,5-dihydroxy-6-(hydroxymethyl)oxan-2-yl]oxy-4-[(2R,3R,4S,5R,6R)-6-(aminomethyl)-3,4,5-trihydroxy-oxan-2-yl]oxy-3-hydroxy-cyclohexyl]-2-hydroxybutanamide] the “EF (emitted fraction)” value [5, 11] was 61.9 ± 8.6%, the MMAD [5, 11] was 6.23 ± 0.97 μm and the “RF < 3 μm” value [5, 11] was 44.5 ± 3.6%. For the same molecule, the “RF < 5 μm” value [5, 11] was 50.8 ± 5.8%, the “EF (emitted fraction)” value [5, 18] was 43.3 ± 8.7% and the MMAD [5, 18] was 11.29 ± 2.93 μm. For the same molecule, the “RF < 3 μm” value [5, 18] was 31.8 ± 6.9% and the “RF < 5 μm” value [5, 18] was 37.6 ± 6.2%.

For `CC(C)N=c1cc2n(-c3ccc(Cl)cc3)c3ccccc3nc-2cc1Nc1ccc(Cl)cc1` [clofazimine, N,5-bis(4-chlorophenyl)-3-(1-methylethylimino)-5H-phenazin-2-amine], the “Solubility in DMF and benzene” value ([6]; Merck Index) is listed as “soluble”, the “Solubility in acetone and ethyl acetate” value ([6]; Merck Index) is listed as “sparingly soluble” and the Solubility in chloroform ([6]; Merck Index) is listed as 15 parts. The Solubility in ethanol ([6]; Merck Index) was 700 parts, the Solubility in ether ([6]; Merck Index) was 1000 parts and the “Solution concentration that can be formed in methanol” value ([6]; Sabnis et al., 2015) was 0.1%. The Solubility in water [6] was “practically insoluble”, the X50 particle diameter [1] was 2.39 μm and the X90 particle diameter [1] was 5.29 μm. For the same molecule, the solubility [7] was at most 800 µg/mL, the “Patient population reporting at least one adverse drug effect” value [8] was 47.5% and the “Duration of administration necessary to reach steady-state concentrations” value [9] was “At least 30 days”.

Reference: US20240299379A1, “COMPOSITIONS OF CLOFAZIMINE AND AMIKACIN FOR PULMONARY ADMINISTRATION IN THE TREATMENT OF RESPIRATORY DISEASES” (BOARD OF REGENTS, THE UNIVERSITY OF TEXAS SYSTEM, priority 2021, published 2024)
